Data taken from patent US4426519A, “7-(2-Amino-4-thiazolyl)-acetamido cephalosporanic acids” (Roussel Uclaf, priority 1979, dated 1984).
≈ marks a conversion by molar mass, not a printed value. Like-named read-outs stand apart in the source and are kept apart here.

Key:
Assay in all cases: MIC, dilution in liquid medium
Format in all cases: cell-based
[1] = tested on: Bacillus subtilis ATCC 6 633
Procedure: (§1) The method used was a dilution of a liquid medium where a series of tubes received the same quantity of a sterile nutritive media and increasing doses of the test compounds were placed therein. Then each tube was seeded with a bacterial strain and was incubated for 24 to 48 hours at 37° C. in an oven. The increasing inhibition was determined by transillulumination to determine the minimum inhibiting concentration (MIC in μg/ml) and the results are reported in the following Tables.

Providencia Du 48 = tested on: Providencia Du 48
Procedure: as §1

[2] = tested on: Streptococcus pyogenes A 561
Procedure: as §1

[3] = tested on: Staphylococcus aureus ATCC 6 538 Pen Sensitive
Procedure: as §1

[4] = tested on: Proteus mirabilis (indol-) A 235
Procedure: as §1

[5] = tested on: Escherichia Coli Resistant Gentamycine, Tobramycine R 55 123 D; details: read-out: MIC
Procedure: as §1

[6] = tested on: Staphylococcus aureus UC 1 128 Pen-resistant
Procedure: as §1

[7] = tested on: Klebsiella pneumoniae Exp. 52 145; details: read-out: MIC
Procedure: as §1

[8] = tested on: Salmonella typhimurium 420; details: Salmonella enterica, read-out: MIC
Procedure: as §1

[9] = tested on: Escherichia Coli Resistant Tetracycline ATCC 11 303
Procedure: as §1

[10] = tested on: Escherichia Coli sensitive Tetracycline ATCC 9 637
Procedure: as §1

[11] = tested on: Klebsiella pneumoniae 2 536 Resistant Gentamycine; details: read-out: MIC
Procedure: as §1

[12] = tested on: Streptococcus faecalis 5 432; details: Enterococcus faecalis, 5432, 24 h
Procedure: as §1

[13] = tested on: Serratia Resistant Gentamycine 2 532; details: read-out: MIC
Procedure: as §1

[14] = tested on: Staphylococcus aureus exp.n°54 146
Procedure: as §1

CC(=O)OCC1=C(C(=O)O)N2C(=O)C(NC(=O)/C(=N\OC(F)F)c3csc(N)n3)C2SC1 (stereo not drawn) [Example 9, Syn isomer of 3-acetoxymethyl-7-[2-(2-amino-4-thiazolyl)-2-difluoromethoxyimino-acetamido]-ceph-3-eme-4-carboxylic acid]
MIC ([1]; ATCC6, 24 h): 1 µg/mL (≈ 2.03 µM) | MIC ([1]; ATCC6, 48 h): 5 µg/mL (≈ 10.2 µM) | MIC (Providencia Du 48; DU48, 24 h): 2 µg/mL (≈ 4.07 µM) | MIC (Providencia Du 48; DU48, 48 h): 2 µg/mL (≈ 4.07 µM) | MIC ([2]; A561, 24 h): 0.05 µg/mL (≈ 0.102 µM) | MIC ([2]; A561, 48 h): 0.05 µg/mL (≈ 0.102 µM) | MIC ([3]; ATCC6, 24 h): 1 µg/mL (≈ 2.03 µM) | MIC ([3]; ATCC6, 48 h): 1 µg/mL (≈ 2.03 µM) | MIC ([4]; 24 h): 0.05 µg/mL (≈ 0.102 µM) | MIC ([4]; 48 h): 0.05 µg/mL (≈ 0.102 µM) | MIC ([5]; 24 h): 0.2 µg/mL (≈ 0.407 µM) | MIC ([5]; 48 h): 0.2 µg/mL (≈ 0.407 µM) | MIC ([6]; UC1, 24 h): 1 µg/mL (≈ 2.03 µM) | MIC ([6]; UC1, 48 h): 2 µg/mL (≈ 4.07 µM) | MIC ([7]; EXP.52145, 24 h): 0.05 µg/mL (≈ 0.102 µM) | MIC ([7]; EXP.52145, 48 h): 0.05 µg/mL (≈ 0.102 µM) | MIC ([8]; 24 h): 0.5 µg/mL (≈ 1.02 µM) | MIC ([8]; 48 h): 0.5 µg/mL (≈ 1.02 µM) | MIC ([9]; ATCC11, 24 h): 0.05 µg/mL (≈ 0.102 µM) | MIC ([9]; ATCC11, 48 h): 0.1 µg/mL (≈ 0.203 µM) | MIC ([10]; ATCC9, 24 h, read-out: MIC): 0.5 µg/mL (≈ 1.02 µM) | MIC ([10]; ATCC9, 48 h): 1 µg/mL (≈ 2.03 µM) | MIC ([11]; 24 h): 0.5 µg/mL (≈ 1.02 µM) | MIC ([11]; 48 h): 0.5 µg/mL (≈ 1.02 µM) | MIC [12]: 5 µg/mL (≈ 10.2 µM) | MIC ([13]; 24 h): 0.5 µg/mL (≈ 1.02 µM) | MIC ([13]; 48 h): 0.5 µg/mL (≈ 1.02 µM) | MIC ([14]; 24 h): 1 µg/mL (≈ 2.03 µM) | MIC ([14]; 48 h): 2 µg/mL (≈ 4.07 µM)
